Source: article PMC6264390, “Design, Synthesis and Structure-activity Studies of Rhodanine Derivatives as HIV-1 Integrase Inhibitors” (Molecules, 2010)
Read-outs that look alike come from different tables or passages of the source.

Key:
[1] = target: T1, HIV-1 IN (Human immunodeficiency virus type 1 group M subtype B, UniProt P12497); assay: In vitro IN inhibition assay (3’-processing and strand transfer); assay type: biochemical; details: Mn2+ cofactor (7.5 mM MnCl2)
T1 construct: pre-incubated with purified recombinant IN (at a final concentration of 200 nM); made in house
How it was run: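 Recombinant HIV-1 IN (200 nM) preincubated with compound 30 min at 30 °C in MnCl2-containing buffer (MgCl2 plus PEG for Mg2+ format), then 1 h with 20 nM 5'-32P-labeled 21-mer duplex. 3'-processing and strand-transfer products resolved on denaturing gels, phosphorimager-quantified; IC50 from log-concentration versus % inhibition.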

[2] = target: T2, human apurinic/apyrimidinic endonuclease 1 (APE1) (Homo sapiens, UniProt P27695); assay: APE1 inhibition assay; assay type: biochemical; details: read-out: Inhibition of APE1 catalytic activity IC50
T2 construct: His; made in house
T2 sequence (P27695 whole entry): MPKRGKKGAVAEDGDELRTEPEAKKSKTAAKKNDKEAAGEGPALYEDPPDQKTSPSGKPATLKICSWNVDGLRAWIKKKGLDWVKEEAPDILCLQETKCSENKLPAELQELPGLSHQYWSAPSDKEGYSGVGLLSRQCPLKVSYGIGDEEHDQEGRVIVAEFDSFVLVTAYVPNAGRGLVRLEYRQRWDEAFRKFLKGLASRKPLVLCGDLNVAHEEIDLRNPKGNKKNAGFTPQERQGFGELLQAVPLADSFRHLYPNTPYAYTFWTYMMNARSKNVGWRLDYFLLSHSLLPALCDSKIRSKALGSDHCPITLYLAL
How it was run: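 His-tagged APE1 (0.05 nM) preincubated with compound 10 min at 30 °C in MOPS pH 7.2 buffer with 7.5 mM MnCl2 and 10% DMSO, then 200 nM 5′-32P-labelled abasic (THF) duplex added for 10 min. Incision products resolved on denaturing gel, phosphorimaged; IC50 from %I versus log concentration.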

[3] = read-out: Inhibition of IN catalytic activity IC50, 3’-Processing
[4] = read-out: Inhibition of IN catalytic activity IC50, Strand Transfer

Row | Compound | IC50 [1, 3] [µM] | IC50 [1, 4] [µM] | IC50 [2] [µM]
1 | O=C(Nc1ccc(Cl)cc1)C(=S)NN1C(=O)C(=Cc2ccc([N+](=O)[O-])o2)SC1=S [Compound 13, N-(4-chlorophenyl)-2-{5-[(5-nitro-2-furyl)methylene]-4-oxo-2-thioxo-1,3-thiazolidin-3-yl}amino-2-thioxoacetamide] | 68 ± 46 | 41 ± 27 | 93
2 | COc1ccc(NC(=O)C(=S)NN2C(=O)C(=Cc3ccc([N+](=O)[O-])o3)SC2=S)cc1 [Compound 17, N-(4-methoxyphenyl)-2-{5-[(5-nitro-2-furyl)methylene]-4-oxo-2-thioxo-1,3-thiazolidin-3-yl}amino-2-thioxoacetamide] | 77 ± 10 | 60 | > 100
